Entries after “also recorded” stand apart in the source; their conditions may differ. Where two headings read alike, the source gives them in different places.
Tests used:
DyP [1] = assay type: biochemical, Geotrichum candidum Dec 1; details: for Specific activity (%): 100 ppm Reactive blue 5, no addition = 100
From the text: […], zinc, copper (divalent), potassium, iron (divalent) and sodium were concurrently present in a reaction solution comprising DyP and 100 ppm Reactive blue 5, so as to examine the effects of these metal ions on the relative activity of the DyP enzyme.

DyP [2] = assay: Assay of dye-degrading (decolorizing) activity of purified DyP; assay type: biochemical, Geotrichum candidum Dec 1; details: dyes of Table 1
Protocol: The dye-degrading spectrum of the purified DyP was examined for nine types of dyes and three model compounds. The activity of the purified DyP to degrade these dyes or model compounds was assayed by measuring the degradation rates.
As the dyes, use was made of Reactive blue 5, 19 and 114; AQ-1 and AQ-2; Reactive black 5, Reactive red 33, Reactive yellow 2, and Reactive blue 182.
The dye-degrading activity was measured as follows.
0.2 to 0.4 mM aqueous hydrogen peroxide was added to a mixture solution of 3 mL of 25 mM citrate buffer (adjusted to the optimum pH for the degradation of each of the dyes) containing each dye at a fixed […] (30 to 120 ppm) and 1 mL of 1.86 nM DyP solution, to initiate the enzyme reaction. Reaction was performed at 30° C. for a fixed period of time, to assay the reaction rate.
1 U of the dye-degrading activity was defined as the activity to decolorize 1 μmole Reactive blue 5 or AQ-2 for one minute.

DyP [3] = assay: Oxidation of model compounds by DyP (absorbance); assay type: biochemical, Geotrichum candidum Dec 1; details: for Degradation by DyP (in words): model compounds of Table 2; for Oxidation rate: 2.79 nM DyP, 0.2 mM hydrogen peroxide, 25 mM citrate buffer, pH and initial concentration (mM) as in columns c2, c3, 470 nm or 465 nm
Protocol: As the model compounds, additionally, use was made of 2,6-dimethoxyphenol, guaiacol and veratryl alcohol.
As to 2,6-dimethoxyphenol used as a model compound, alternatively, absorbance at 470 nm was calorimetrically measured, which emerged via oxidation.
That is to say, a mixture solution of 2.79 nM DyP and 0.2 mM 2,6-dimethoxyphenol was reacted with 25 mM citrate buffer (pH 4.5) containing 0.2 mM hydrogen peroxide.
As to guaiacol, 1 mM guaiacol was used in place of 0.2 mM 2,6-dimethoxyphenol, for absorbance measurement at 465 nm.

Isoelectric focusing = assay type: physicochemical; details: FIG. 2
Protocol: Then, the isoelectric point of the inventive enzyme was measured. The isoelectric point was measured by isoelectric focusing.
For measurement of isoelectric focusing, a low-pI calibration kit of Multiphor II 2-D for pH 2.5 to pH 6.5, manufactured by Pharmacia, Co. was used. Consequently, the isoelectric point of DyP was assayed as 3.8.

[4] = Temperature stability of peroxidase (remaining activity after storage); assay type: physicochemical; details: 25 mM citrate buffer
Protocol: After the inventive dye-degrading enzyme DyP was stored at a fixed temperature for a fixed period of time, the ratio of the remaining activity was subsequently evaluated. Specifically, a solution of the dye-degrading enzyme DyP in 25 mM citrate buffer was stored at 30° C. or 40° C. for 14 days.
So as to compare the temperature stability with those of other peroxidases, solutions of individual enzymes in 25 mM citrate buffer were stored at 60° C. for 3 hours, by using a commercially available horse-radish peroxidase (manufactured by Wako Chemical Co., Ltd.; sometimes abbreviated as HRP hereinafter) as the control. Subsequently, the remaining enzyme activities were compared to each other.

Molecule: [Ca+2] [Ca^++, calcium]
- Specific activity (%) (DyP [1]; metal ion 5 mM): 81%

Molecule: [Zn+2] [Zn^++, zinc]
- Specific activity (%) (DyP [1]; metal ion 5 mM): 69%

Molecule: CNc1cc(S(=O)(=O)[O-])c(N)c2c1C(=O)c1ccccc1C2=O.[Na+] [AQ-2, 1-amino-4-methylamino-2-sodium-anthraquinone sulfonate]
- Degradation by DyP (in words) (DyP [2]): excellent degradation activity

Molecule: Nc1c(S(=O)(=O)[O-])cc(Nc2ccc(S(=O)(=O)[O-])c(Nc3nc(Cl)nc(Nc4cccc(S(=O)(=O)[O-])c4)n3)c2)c2c1C(=O)c1ccccc1C2=O.[Na+].[Na+].[Na+] [Reactive blue 5]
- Degradation by DyP (in words) (DyP [2]): excellent degradation activity

Molecule: [K+] [K^+, potassium]
- Specific activity (%) (DyP [1]; metal ion 5 mM): 81%

Molecule: COc1ccc(CO)cc1OC [Veratryl alcohol, veratryl alcohol]
- Degradation by DyP (in words) (DyP [3]): could never degrade; also recorded: no reaction

Molecule: COc1ccccc1O [Guaiacol, guaiacol]
- Oxidation rate (DyP [3]): 0.29 ΔOD/min
- Degradation by DyP (in words) (DyP [3]): could efficiently be degraded

Molecule: Nc1c(S(=O)(=O)[O-])cc(Nc2cccc(S(=O)(=O)CCOS(=O)(=O)[O-])c2)c2c1C(=O)c1ccccc1C2=O.[Na+].[Na+] [Reactive blue 19]
- Degradation by DyP (in words) (DyP [2]): excellent degradation activity

Molecule: [Fe+2] [Fe^++, iron (divalent)]
- Inhibition of DyP activity (DyP [1]; ion concurrently present at 0.2 mM): 50%
- Specific activity (%) (DyP [1]; metal ion 0.2 mM): 50%

Molecule: [Cu+2] [Cu^++, copper (divalent)]
- Specific activity (%) (DyP [1]; metal ion 5 mM): 75%

Molecule: [Na+] [Na^+, sodium]
- Specific activity (%) (DyP [1]; metal ion 5 mM): 81%

Molecule: Reactive blue 182
- Degradation by DyP (in words) (DyP [2]): efficiently degraded

Molecule: COc1cccc(OC)c1O [2,6-Dimethoxyphenol, 2,6-dimethoxyphenol]
- Oxidation rate (DyP [3]): 0.29 ΔOD/min
- Degradation by DyP (in words) (DyP [3]): could efficiently be degraded

B1: DyP: peroxidase derived from Geotrichum candidum Dec 1 strain (FERM BP-7033), amino acid sequence SEQ ID NO. 7 (protein, listed as Geotrichum candidum)
chain: MDLSLFVVSVAVLVGSSSHVNAAKLGARQTRTTPLLTNFPGQAPLPTLTQHTTESGANDTILPLNNIQGDILVGMKKQKERFVFFQVNDATSFKTALKTYVPQRITSAAILISDPSQQPLAFVNLGFSNTGLQALGITDDLGDAQFPDGQFADAANLGDDLSQWVAPFTGTTIHGVFLIGSDQDDFLDQFTDDISSTFGSSITQVQALSGSARPGDQAGHEHFGFLDGISQPSVTGWETTVFPGQAVVPPGIILTGRDGDTGTRPSWALDGSFMAFRHFQQKVPEFNAYTLANAIPANSAGNLTQQEGAEFLGARMFGRWKSGAPIDLAPTADDPALGADPQRNNNFDYSDTLTDETRCPFGAHVRKTNPRQDLGGPVDTFHAMRSSIPYGPETSDAELASGVTAQDRGLLFVEYQSIIGNGFRFQQINWANNANFPFSKPITPGIEPIIGQTTPRTVGGLDPLNQNETFTVPLFVIPKGGEYFFLPSISALTATIAA
- Isoelectric point (pI) (Isoelectric focusing): 3.8
- Remaining enzyme activity ([4]; stored at 30° C. for 14 days): 63%
- Remaining enzyme activity ([4]; stored at 40° C. for 14 days): 41%
- Remaining enzyme activity ([4]; stored at 60° C. for 3 hours): 65%

— patent US7041486B1, “Enzyme having decolorizing activity and method for decolorizing dyes by using the same” (Meiji Seika Kaisha Ltd., priority 1999, dated 2006)
